Results taken from patent US11247984B2, “Uracil containing compounds” (CV6 Therapeutics (NI) Limited, priority 2017, dated 2022).

Key:
[1] = system: colorectal (HCT116 and SW620) cell line models; test: MTS growth inhibition assay; assay type: cell-based; conditions: 5-FU between 0 and 100 μmol/L
Experimental: The Cell Titer AQueous MTS assay (Promega) is carried out according to the manufacturers guidelines. […] The combination effect is determined by the combination index (CI) method utilizing Calcusyn software (Biosoft, Ferguson, Mo.). Fraction affected (FA) is calculated from the percent growth inhibition: FA=[…]. CI values <1, synergism; 1-1.2, additive and >1.2, antagonism.
Test compounds are evaluated for their antitumor activity in colorectal cancer cells using the MTS growth inhibition assay. HCT116 and SW620 cells are exposed to increasing concentrations of each agent for 72 hours and growth inhibition is directly compared to vehicle-treated controls. The NSCLC cell lines A549 and H1299 are exposed to increasing concentrations of each agent for 72 hours and growth inhibition is directly compared to vehicle-treated controls.
MTS growth inhibition assays are performed to evaluate the effectiveness of the test compounds alone and in combination with the fluoropyrimidine thymidylate synthase (TS) inhibitor 5-fluorouracil (5-FU) at inhibiting the growth of colorectal (HCT116 and SW620) cell line models. […] Simultaneous treatment with increasing concentrations of 5-FU and a test compound at fixed concentrations of 25 μmol/L is determined.

[2] = biological target: T1, recombinant human deoxyuridine nucleotidohydrolase (dUTPase) (Homo sapiens, UniProt P33316); test: fluorescence-based dUTPase inhibition assay; assay type: biochemical; conditions: for % relative inhibition vs. positive control: mean across three concentrations, typically 100, 50 and 25 μmol/L, compared to in-run positive control
T1 construct: made in house
T1 sequence (P33316 1-164 isoform P33316-2): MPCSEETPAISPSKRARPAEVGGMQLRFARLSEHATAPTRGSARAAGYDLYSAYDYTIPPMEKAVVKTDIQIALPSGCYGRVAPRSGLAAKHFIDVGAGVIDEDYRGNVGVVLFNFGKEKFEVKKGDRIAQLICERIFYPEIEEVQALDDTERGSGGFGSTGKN
Text: Recombinant human deoxyuridine nucleotidohydrolase (dUTPase) is expressed and purified as described in Ladner R D, Carr S A, Huddleston M J, McNulty D E, Caradonna S J. J Biol Chem. 1996 Mar. 29; 271(13):7752-7. All drugs stocks are aliquoted and diluted as appropriate prior to use. The oligonucelotide primer, templates and fluorophore- and quencher-labeled detection probes are synthesized by Integrated DNA Technologies (Coralville, Iowa), subjected to polyacrylamide gel electrophoresis purification and reconstituted in Omnipur sterile nuclease-free water (EMD Chemicals USA, Gibbstown N.J.) at a stock concentration of 100 μmol/L. The two non-emissive (dark) quenching molecules incorporated into the detection probes include the Iowa black fluorescein quencher (IBFQ; absorption max 531 nm) and ZEN (non-abbreviation; absorption max 532 nm). The fluorescent label utilized is 6-FAM (5′-carboxyfluorescein; excitation max.=494 nm, emission max.=520 nm). Probes are further diluted to a working stock of 10 μmol/L and aliquoted to avoid repeated freeze/thaw cycles. AmpliTaq Gold DNA Polymerase, GeneAmp 10×PCR Buffer 2, MgCl2 and MicroAmp Optical 96-well Reaction Plates are purchased from Applied Biosystems (Carlsbad, Calif.). dNTPs are purchased individually at stock concentrations of 100 mmol/L from New England Biolabs at HPLC-certified >99% purity (Ipswich, Mass.).
Reaction mixtures contained primer, probe and template at an equimolar final concentration of 0.4 μmol/L. Magnesium chloride (MgCl2) is included at a final concentration of 2 mmol/L. Non-limiting dNTPs are included in the reaction mix in excess at a final concentration of 100 μmol/L (dUTP/dTTP is excluded). AmpliTaq Gold DNA polymerase is added at 0.875 U/reaction, 2.5 μl of 10×PCR buffer 2 added and nuclease-free ddH2O added to a final reaction volume of 25 μl. For dUTP inhibition analysis, the volume of ddH2O is further modified to accommodate an additional 1 μl of dUTPase (10 ng/μt) and 1 μl of inhibitor or DMSO control. Thermal profiling and fluorescence detection is performed using a customized thermal program on board a Roche Lightcycler LC480 Instrument II. For analysis of dNTPs, the thermal profile consisted of an 8 min 37° C. step followed by a 10 min 95° C. step to ‘hot-start’ the Taq polymerase and a primer extension time of up to 30 min at 60° C. Raw fluorescence spectra for 6-FAM is measured at specified time intervals to follow assay progression on board a Roche LightCycler 480 Software Version 1.5 and exported and analyzed in Microsoft Excel (Microsoft, Redmond Wash.) and Prism (GraphPad Software, La Jolla Calif.). Fluorescence values for blank reactions (limiting dNTP omitted) are subtracted to give normalized fluorescence units (NFU) to account for background fluorescence.
Test compounds are screened in a fluorescence-based assay. The assay employs a DNA polymerase-based approach utilizing an oligonucleotide template with 3 distinct regions: a 3′ primer binding region, a mid-template dUTP/thymidine triphosphate (TTP) detection region and a 5′ 6-[…] (FAM)-labeled probe binding region that incorporates a black hole quenching moiety. During the reaction, the probe and primer hybridize to the oligonucleotide template to form the template:primer:probe complex. When Taq polymerase binds to the primer in the TPP complex and dUTP is present, successful extension of the nascent strand occurs and the inherent 5′ to 3′ exonuclease activity of Taq polymerase cleaves and displaces the 6-FAM-labeled probe in a 5′ to 3′ direction, releasing the 6-FAM fluorophore from its proximity to the […]. This displacement effectively disrupts the Forster resonance energy transfer (FRET) and the resulting fluorescence detected upon excitation is directly proportional to the amount of the dUTP available in the assay for incorporation. […]

[3] = system: colorectal (HCT116), breast (MCF-7) and non-small cell lung (H1299, A549, H358 and H460) cell line models; test: colony forming assay; assay type: cell-based; conditions: FUdR between 0.5 and 2.5 μmol/L; all cell lines evaluated
Experimental: Colony forming assay showing the ability of colon (SW620, HCT116), non-small cell lung (A549, H460, H1299 and H358) and breast (MCF7) cancer cells to survive and proliferate following transient 24 hour exposure to test compounds, FUdR and combinations are determined. Specifically, cells are seeded at densities between 50 and 100 cells/well in 24-well plates. Twenty-four hours later, cells are treated with increasing concentrations of a rtest compound, a fixed dose of FUdR and combinations of these. After 24 hours, drug is removed, cells are rinsed and allowed to outgrow for 10-14 days. At the conclusion of the outgrowth, cells are fixed in 60% ice cold methanol and stained with 0.1% crystal violet, scanned and counted. Data is presented as percentage of untreated controls (mean±SD). Fraction affected and combination indexes are calculated according to the method of Chou and Talalay where <1 is indicative of a synergistic drug interaction.
Colony forming assays are performed to evaluate the effectiveness of test compounds alone and in combination with the fluoropyrimidine thymidylate synthase (TS) inhibitor fluorodeoxyuridine (FUdR) at reducing cancer cell viability in colorectal (HCT116), breast (MCF-7) and non-small cell lung (H1299, A549, H358 and H460) cell line models. […]

SMILES | % relative inhibition vs. positive control [2] | also measured
O=c1[nH]cc(F)c(=O)[nH]1 [Example 5-FU, 5-fluorouracil] | – | growth inhibition [1]: dose-dependent increases in growth inhibition
CC(C)[C@@H](NS(=O)(=O)CC/C=C/CN1CCC(=O)NC1=O)c1ccc(F)c(OCC2CC2)c1 [Example 79, (R,E)-N-(1-(3-(cyclopropylmethoxy)-4-fluorophenyl)-2-methylpropyl)-5-(2,4-dioxotetrahydropyrimidin-1(2H)-yl)pent-3-ene-1-sulfonamide] | 145% | –
CC(C)[C@@H](NS(=O)(=O)CCCCCN1CCC(=O)NC1=O)c1ccc(F)c(OCC2CC2)c1 [Example 80, (R)—N-(1-(3-(cyclopropylmethoxy)-4-fluorophenyl)-2-methylpropyl)-5-(2,4-dioxotetrahydropyrimidin-1(2H)-yl)pentane-1-sulfonamide] | 103% | –
CC(C)COc1cc(C(C)(C)NS(=O)(=O)CC/C=C/CN2CCC(=O)NC2=O)ccc1F [Example 81, (E)-5-(2,4-dioxotetrahydropyrimidin-1(2H)-yl)-N-(2-(4-fluoro-3-isobutoxyphenyl)propan-2-yl)pent-3-ene-1-sulfonamide] | 80% | –
C[C@@H](NS(=O)(=O)CCCOCN1CCC(=O)NC1=O)c1cccc(OCC2CC2)c1 [Example 82, (R)—N-(1-(3-(cyclopropylmethoxy)phenyl)ethyl)-3-((2,4-dioxotetrahydropyrimidin-1(2H)-yl)methoxy)propane-1-sulfonamide] | 174% | –
CC[C@@H](NS(=O)(=O)CCCOCN1CCC(=O)NC1=O)c1ccc(F)c(OCC2CC2)c1 [Example 83, (R)—N-(1-(3-(cyclopropylmethoxy)-4-fluorophenyl)propyl)-3-((2,4-dioxotetrahydropyrimidin-1(2H)-yl)methoxy)propane-1-sulfonamide] | 166% | –
C[C@@H](NS(=O)(=O)CCCCCn1ccc(=O)[nH]c1=O)c1ccc(F)c(OCC2CC2)c1 [Example 84, (R)—N-(1-(3-(cyclopropylmethoxy)-4-fluorophenyl)ethyl)-5-(2,4-dioxo-3,4-dihydropyrimidin-1(2H)-yl)pentane-1-sulfonamide] | 214% | IC50 ([2]; recombinant dUTPase, 8 min at 37° C.): 300 nM
C[C@H](NS(=O)(=O)CCCCCn1ccc(=O)[nH]c1=O)c1ccc(F)c(OCC2CC2)c1 [Example 86, (S)—N-(1-(3-(cyclopropylmethoxy)-4-fluorophenyl)ethyl)-5-(2,4-dioxo-3,4-dihydropyrimidin-1(2H)-yl)pentane-1-sulfonamide] | 54% | –
O=c1[nH]c(=O)n([C@H]2C[C@H](O)[C@@H](CO)O2)cc1F [FUdR, fluorodeoxyuridine] | – | colonies formed [3]: dose-dependent decreases in colonies formed
